Results published in patent publication US20250325610A1, “Compositions Containing Cannabis and Hericium Extracts for the Improvement of Mental Health and Treatment of CNS Disorders” (DrinkBrez, LLC, priority 2024, published 2025).

Tested on: theta power
Assay: EEG study on theta power modulation by THC and Lion's Mane extract (randomized, double-blind, crossover)
Type: in vivo, human
Conditions: for global theta power change: 16-node EEG, normalized theta power
Experimental: Participants: 10 healthy adults (18-45 years) in a randomized, double-blind, crossover trial.
Treatments: Baseline (placebo), Lion's Mane (2.2 g), THC (5 mg), THC+Lion's Mane.
Administration: Nanoemulsion beverages for rapid absorption.
EEG recordings: 16-node headset measured theta power at 0 min (baseline), 15 min, and 30 min.
Normalized theta power analyzed via mixed-effects ANOVA.
Topographic mapping for spatial changes.

## CCCCCc1cc(O)c2c(c1)OC(C)(C)[C@@H]1CCC(C)=C[C@@H]21 [THC, Δ9-tetrahydrocannabinol]
15 min after nanoemulsion beverage
  global theta power change: −8.9%
15 minutes
  theta power change, frontal nodes F3, F7 and FC5: −14.6%
30 min after nanoemulsion beverage
  global theta power change: 19.4%
30 minutes
  theta power change, frontal nodes: 33.2%
Nodes P3, P4, O1, O2
  theta power change, parietal (P3, P4) and occipital (O1, O2) nodes: 4-8%
